The IC50 is the midpoint of a concentration-inhibition curve. Read a low IC50 as inhibition by little substance.

The values that follow come from patent US9409914B2, “Triazolo[4,5-d]pyrimidine derivatives” (Merck Patent GmbH, priority 2012, dated 2016).

This assay has as its target GCN2 (Homo sapiens, UniProt Q9P2K8). Nature of the assay: GCN2 enzyme assay (TR-FRET Lanthascreen, phosphorylation of GFP-eIF2alpha). The assay is classed as biochemical. Particulars: 10 μM ATP, 80 nM GFP-eIF2alpha, 30 nM GCN2, room temperature. The source says:
GCN2: Assay principle & conditions
This assay can quantificate the activity of the serin kinase GCN2 (general control non-derepressible-2).
This kinase is involved in the stress metabolism of cells. It is activated upon starvation (amino acid depletion). Its natural substrate is eIF2a (eukaryotic initiation factor 2 alpha subunit), a translation factor, which gets activated (phosphorylated) by GCN2 in case of an amino acid bottleneck in the cells. This in turn leads to a halt of the protein synthesis. Inhibition of GCN2 results in stopping this mechanism: The cell can not stop protein production upon “starvation” stress.
The assay is run in two steps: the enzymatic reaction and the detection step. In the first step GCN2 is incubated with 10 μM ATP and 80 nM of the GFP-labelled substrate eIF2alpha at room temperature.
The enzymatic reaction is stopped by addition of EDTA. The amount of phosphorylated eIF2alpha is determined by TR-FRET (Lanthascreen): A complex is formed consisting of antibody and GFP labelled phospho-eIF2a, which allows a FRET upon exitation at 340 nm.
The GCN2-activity is directly proportional to the ratio of fluorescence units at the emission wavelengthh 520 nm (phosphopeptide-sensitive wavelength=emission of GFP) to the units at 495 nm (reference wavelength=emission of Terbium-chelate).
Final Concentrations in the Enzymatic Reaction
A general note: In TR-FRET formats the signal depends on donor and acceptor labels being close together.

Sequence of GCN2 (Q9P2K8 whole entry, species assumed): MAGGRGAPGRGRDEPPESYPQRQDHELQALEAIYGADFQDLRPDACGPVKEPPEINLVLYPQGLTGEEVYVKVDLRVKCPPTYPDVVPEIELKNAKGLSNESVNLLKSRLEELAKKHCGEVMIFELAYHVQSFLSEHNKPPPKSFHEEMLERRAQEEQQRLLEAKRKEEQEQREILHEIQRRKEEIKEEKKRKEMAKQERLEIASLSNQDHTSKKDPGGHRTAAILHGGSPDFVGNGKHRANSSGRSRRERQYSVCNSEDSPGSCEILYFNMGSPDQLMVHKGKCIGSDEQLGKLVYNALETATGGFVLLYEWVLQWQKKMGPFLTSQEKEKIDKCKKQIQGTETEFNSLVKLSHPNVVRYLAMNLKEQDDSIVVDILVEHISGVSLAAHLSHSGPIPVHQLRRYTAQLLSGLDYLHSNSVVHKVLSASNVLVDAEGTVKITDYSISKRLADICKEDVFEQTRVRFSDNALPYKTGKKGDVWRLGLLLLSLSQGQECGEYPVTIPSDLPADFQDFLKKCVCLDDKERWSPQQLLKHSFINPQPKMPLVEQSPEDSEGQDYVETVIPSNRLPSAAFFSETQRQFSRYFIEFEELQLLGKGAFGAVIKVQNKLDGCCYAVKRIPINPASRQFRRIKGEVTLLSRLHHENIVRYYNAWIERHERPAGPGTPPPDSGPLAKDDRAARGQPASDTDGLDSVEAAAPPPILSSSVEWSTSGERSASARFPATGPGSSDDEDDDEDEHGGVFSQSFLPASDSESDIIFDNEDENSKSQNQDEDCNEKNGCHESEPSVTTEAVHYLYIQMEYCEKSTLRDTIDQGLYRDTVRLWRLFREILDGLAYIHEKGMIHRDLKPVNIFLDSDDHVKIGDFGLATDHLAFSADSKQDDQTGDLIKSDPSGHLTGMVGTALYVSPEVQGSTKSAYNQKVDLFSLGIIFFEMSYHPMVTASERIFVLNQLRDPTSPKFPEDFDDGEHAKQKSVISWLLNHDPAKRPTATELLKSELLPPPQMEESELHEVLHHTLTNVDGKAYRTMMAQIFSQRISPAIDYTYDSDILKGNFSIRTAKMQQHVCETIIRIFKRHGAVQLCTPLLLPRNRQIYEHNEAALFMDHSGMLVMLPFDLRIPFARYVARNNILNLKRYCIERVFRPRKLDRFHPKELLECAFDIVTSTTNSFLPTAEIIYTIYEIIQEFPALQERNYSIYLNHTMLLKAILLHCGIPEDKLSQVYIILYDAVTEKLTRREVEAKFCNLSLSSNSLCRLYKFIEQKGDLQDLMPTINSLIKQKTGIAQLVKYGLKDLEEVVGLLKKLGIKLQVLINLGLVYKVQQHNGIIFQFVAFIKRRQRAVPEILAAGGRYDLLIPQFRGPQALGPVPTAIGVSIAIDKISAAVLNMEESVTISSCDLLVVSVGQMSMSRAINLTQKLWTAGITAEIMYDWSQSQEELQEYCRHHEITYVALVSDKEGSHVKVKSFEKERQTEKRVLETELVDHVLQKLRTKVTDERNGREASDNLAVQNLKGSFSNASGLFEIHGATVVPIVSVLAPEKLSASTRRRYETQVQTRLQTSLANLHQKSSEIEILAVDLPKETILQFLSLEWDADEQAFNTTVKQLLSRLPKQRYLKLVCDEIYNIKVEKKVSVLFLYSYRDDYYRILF

Consider `CC(C)(N)c1ccc(-n2nnc3cnc(Nc4cnn(C5CCOCC5)c4)nc32)cc1` [Compound A152, {3-[4-(1-amino-1-methyl-ethyl)-phenyl]-3H-[1,2,3]triazolo[4,5-d]pyrimidin-5-yl}-[1-(tetrahydro-pyran-4-yl)-1H-pyrazol-4-yl]-amine], for which the 50% inhibitory concentration (IC50) is under 300 nM.

For the compound `CN1CCC(n2cc(Nc3ncc4nnn(-c5ccc(Cl)cc5)c4n3)cn2)CC1` [Compound A153, [3-(4-chloro-phenyl)-3H-[1,2,3]triazolo[4,5-d]pyrimidin-5-yl]-[1-(1-methyl-piperidin-4-yl)-1H-pyrazol-4-yl]-amine], the half-inhibitory concentration (IC50) is under 300 nM.

In turn, `COc1ccc(-n2nnc3cnc(Nc4cnn([C@H]5CC[C@H](O)CC5)c4)nc32)nc1` [Compound A143, 4-{4-[3-(5-methoxy-pyridin-2-yl)-3H-[1,2,3]triazolo[4,5-d]pyrimidin-5-ylamino]-pyrazol-1-yl}-cyclohexanol] yielded an IC50 of under 300 nM.

With `CS(=O)(=O)N1CCC(n2cc(Nc3ncc4nnn(-c5ccc(F)c(Cl)c5)c4n3)cn2)CC1` [Compound A154, [3-(3-chloro-4-fluoro-phenyl)-3H-[1,2,3]triazolo[4,5-d]pyrimidin-5-yl]-[1-(1-methanesulfonyl-piperidin-4-yl)-1H-pyrazol-4-yl]-amine], the concentration for half-maximal inhibition (IC50) was 300 to 3000 nM.

In the case of `CCOc1ccc(-n2nnc3cnc(Nc4cnn(C5CCOCC5)c4)nc32)cc1` [Compound A15, [3-(4-ethoxy-phenyl)-3H-[1,2,3]triazolo[4,5-d]pyrimidin-5-yl]-[1-(tetrahydro-pyran-4-yl)-1H-pyrazol-4-yl]-amine], the concentration for half-maximal inhibition (IC50) is under 300 nM.

The compound `Fc1ccc(-n2nnc3cnc(Nc4cnn(C5CCOCC5)c4)nc32)cc1F` [Compound A116, [3-(3,4-difluoro-phenyl)-3H-[1,2,3]triazolo[4,5-d]pyrimidin-5-yl]-[1-(tetrahydro-pyran-4-yl)-1H-pyrazol-4-yl]-amine] returned an IC50 of 300 to 3000 nM.

Consider `CCCCOc1ccc(-n2nnc3cnc(Nc4cnn(C5CCOCC5)c4)nc32)cn1` [Compound A47, [3-(6-butoxy-pyridin-3-yl)-3H-[1,2,3]triazolo[4,5-d]pyrimidin-5-yl]-[1-(tetrahydro-pyran-4-yl)-1H-pyrazol-4-yl]-amine], for which the IC50 fell in the range of 300 to 3000 nM.

The compound `OC[C@@H]1C[C@H]1Cn1cc(Nc2ncc3nnn(-c4ccc5nccnc5c4)c3n2)cn1` (relative stereo) [Compound A104, {(trans)-2-[4-(3-quinoxalin-6-yl-3H-[1,2,3]triazolo[4,5-d]pyrimidin-5-ylamino)-pyrazol-1-ylmethyl]-cyclopropyl}-methanol] yielded a half-maximal inhibitory concentration (IC50) of under 300 nM.

In turn, `CCn1cc(Nc2ncc3nnn(-c4ccc(F)cc4)c3n2)cn1` [Compound A63, (1-ethyl-1H-pyrazol-4-yl)-[3-(4-fluoro-phenyl)-3H-[1,2,3]triazolo[4,5-d]pyrimidin-5-yl]-amine] came in with an IC50 of under 300 nM.

With `CN1CCC(n2cc(Nc3ncc4nnn(-c5ccn(C)n5)c4n3)cn2)CC1` [Compound A139, [1-(1-methyl-piperidin-4-yl)-1H-pyrazol-4-yl]-[3-(1-methyl-1H-pyrazol-3-yl)-3H-[1,2,3]triazolo[4,5-d]pyrimidin-5-yl]-amine], the IC50 fell in the range of 300 to 3000 nM.

Regarding `CCOc1ccc(-n2nnc3cnc(Nc4cc(-c5cnn(C)c5C)n[nH]4)nc32)cc1` [Compound A140, (1′,5′-dimethyl-1H,1′H-[3,4′]bipyrazolyl-5-yl)-[3-(4-ethoxy-phenyl)-3H-[1,2,3]triazolo[4,5-d]pyrimidin-5-yl]-amine], the IC50 lay within 300 to 3000 nM.

Consider `Fc1cccc(-n2nnc3cnc(Nc4cnn(CCCC5CCNCC5)c4)nc32)c1` [Compound A129, [3-(3-fluoro-phenyl)-3H-[1,2,3]triazolo[4,5-d]pyrimidin-5-yl]-[1-(3-piperidin-4-yl-propyl)-1H-pyrazol-4-yl]-amine], for which the IC50 was under 300 nM.

Compound `Fc1ccc(-n2nnc3cnc(Nc4cnn(C5CCOCC5)c4)nc32)cc1` [Compound A20, [3-(4-fluoro-phenyl)-3H-[1,2,3]triazolo[4,5-d]pyrimidin-5-yl]-[1-(tetrahydro-pyran-4-yl)-1H-pyrazol-4-yl]-amine] registered an IC50 of under 300 nM.

`O=C1COCCN1n1cc(Nc2ncc3nnn(-c4ccc5cccnc5c4)c3n2)cn1` [Compound A145, 4-[4-(3-quinolin-7-yl-3H-[1,2,3]triazolo[4,5-d]pyrimidin-5-ylamino)-pyrazol-1-yl]-morpholin-3-one] returned an IC50 of 300 to 3000 nM.

`CC(=O)Nc1ccc(-n2nnc3cnc(Nc4cnn(C[C@@H]5C[C@H]5CO)c4)nc32)cn1` (relative stereo) [Compound A59, N-(5-{5-[1-((trans)-2-hydroxymethyl-cyclopropylmethyl)-1H-pyrazol-4-ylamino]-[1,2,3]triazolo[4,5-d]pyrimidin-3-yl}-pyridin-2-yl)-acetamide] had an IC50 of 300 to 3000 nM.

With `O=C1CCCN1c1ccc(-n2nnc3cnc(Nc4cnn(C5CCOCC5)c4)nc32)cc1` [Compound A43, 1-[4-[5-[(1-tetrahydropyran-4-ylpyrazol-4-yl)amino]triazolo[4,5-d]pyrimidin-3-yl]phenyl]pyrrolidin-2-one], the IC50 is under 300 nM.

For the compound `CCOc1ccc(-n2nnc3cnc(Nc4cnn([C@H]5CC[C@@H](O)CC5)c4)nc32)cc1` [Compound A19, 4-{4-[3-(4-ethoxy-phenyl)-3H-[1,2,3]triazolo[4,5-d]pyrimidin-5-ylamino]-pyrazol-1-yl}-cyclohexanol], the 50% inhibitory concentration (IC50) is under 300 nM.

Compound `CCCCOc1ccc(-n2nnc3cnc(Nc4cnn(CCC5CCNCC5)c4)nc32)cn1` [Compound A55, [3-(6-butoxy-pyridin-3-yl)-3H-[1,2,3]triazolo[4,5-d]pyrimidin-5-yl]-[1-(2-piperidin-4-yl-ethyl)-1H-pyrazol-4-yl]-amine] displayed an IC50 of 300 to 3000 nM.

`COc1ccc(-n2nnc3cnc(Nc4cnn([C@H]5CC[C@@H](O)CC5)c4)nc32)cn1` [Compound A137, 4-{4-[3-(6-methoxy-pyridin-3-yl)-3H-[1,2,3]triazolo[4,5-d]pyrimidin-5-ylamino]-pyrazol-1-yl}-cyclohexanol] had an IC50 of 300 to 3000 nM.

Consider `COc1ccc(-n2nnc3cnc(Nc4cnn(C5CCOCC5)c4)nc32)cc1` [Compound A13, [3-(4-methoxy-phenyl)-3H-[1,2,3]triazolo[4,5-d]pyrimidin-5-yl]-[1-(tetrahydro-pyran-4-yl)-1H-pyrazol-4-yl]-amine], for which the 50% inhibitory concentration (IC50) was under 300 nM.

Compound `COc1ccc(-n2nnc3cnc(Nc4ncn[nH]4)nc32)cc1` [Compound A17, [3-(4-methoxy-phenyl)-3H-[1,2,3]triazolo[4,5-d]pyrimidin-5-yl]-(2H-[1,2,4]triazol-3-yl)-amine] had an IC50 of 3000 to 50000 nM.

Compound `COCCCn1cc(Nc2ncc3nnn(-c4ccc(Cl)c(F)c4)c3n2)cn1` [Compound A50, [3-(4-chloro-3-fluoro-phenyl)-3H-[1,2.3]triazolo[4,5-d]pyrimidin-5-yl]-[1-(3-methoxy-propyl)-1H-pyrazol-4-yl]-amine] came in with an IC50 of under 300 nM.

`CCn1cc(Nc2ncc3nnn(-c4ccc(F)cc4C#N)c3n2)cn1` [Compound A72, 2-[5-(1-ethyl-1H-pyrazol-4-ylamino)-[1,2,3]triazolo[4,5-d]pyrimidin-3-yl]-5-fluoro-benzonitrile] registered a 50% inhibitory concentration (IC50) of 300 to 3000 nM.

The compound `CN1CCC(n2cc(Nc3ncc4nnn(-c5ccc(S(N)(=O)=O)cc5)c4n3)cn2)CC1` [Compound A142, 4-{5-[1-(1-methyl-piperidin-4-yl)-1H-pyrazol-4-ylamino]-[1,2,3]triazolo[4,5-d]pyrimidin-3-yl}-benzenesulfonamide] came in with an IC50 of under 300 nM.

Compound `c1cnc2cc(-n3nnc4cnc(Nc5cnn(C6COC6)c5)nc43)ccc2c1` [Compound A112, (1-oxetan-3-yl-1H-pyrazol-4-yl)-(3-quinolin-7-yl-3H-[1,2,3]triazolo[4,5-d]pyrimidin-5-yl)-amine] returned an IC50 of 300 to 3000 nM.

Compound `COc1ccc(-n2nnc3cnc(Nc4cnn(N5CCOCC5=O)c4)nc32)cc1` [Compound A138, 4-{4-[3-(4-methoxy-phenyl)-3H-[1,2,3]triazolo[4,5-d]pyrimidin-5-ylamino]-pyrazol-1-yl}-morpholin-3-one] registered a half-maximal inhibitory concentration (IC50) of under 300 nM.

As for `COc1ccc(-n2nnc3cnc(Nc4cnn([C@H]5CC[C@H](O)CC5)c4)nc32)cn1` [Compound A109, 4-{4-[3-(6-methoxy-pyridin-3-yl)-3H-[1,2,3]triazolo[4,5-d]pyrimidin-5-ylamino]-pyrazol-1-yl}-cyclohexanol], the 50% inhibitory concentration (IC50) fell in the range of 300 to 3000 nM.

`CCOc1ccc(-n2nnc3cnc(Nc4cnn(CCN5CCOCC5=O)c4)nc32)cc1` [Compound A149, 4-(2-{4-[3-(4-ethoxy-phenyl)-3H-[1,2,3]triazolo[4,5-d]pyrimidin-5-ylamino]-pyrazol-1-yl}-ethyl)-morpholin-3-one] gave an IC50 of under 300 nM.

For the compound `CN1CCC(n2cc(Nc3ncc4nnn(-c5ccc(F)cc5C#N)c4n3)cn2)CC1` [Compound A74, 5-fluoro-2-{5-[1-(1-methyl-piperidin-4-yl)-1H-pyrazol-4-ylamino]-[1,2,3]triazolo[4,5-d]pyrimidin-3-yl}-benzonitrile], the IC50 was 300 to 3000 nM.

As for `COc1ccc(-n2nnc3cnc(Nc4cnn(CCN5CCCC5)c4)nc32)cc1` [Compound A14, [3-(4-methoxy-phenyl)-3H-[1,2,3]triazolo[4,5-d]pyrimidin-5-yl]-[1-(2-pyrrolidin-1-yl-ethyl)-1H-pyrazol-4-yl]-amine], the IC50 was under 300 nM.
